Counter-ions that a name gives are not always drawn.
Assays:
Assay type in all cases: biochemical
LCK = LCK (Homo sapiens, UniProt P06239); assay: Kinase panel inhibition, LCK (one of the methods of Example 76a, 76b, 76c)
Method in brief: (§1)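 BTK (0.5 nM) and LCK (6 nM) by TR-FRET, ATP at Km, biotinylated peptide, pH 7.4, 1 h; Ki(app) converted to IC50. Alternatively, full-length His6-BTK (1 nM) by mobility shift, 16 μM ATP (Km), 1 μM FAM peptide, pH 7.5, 1 h; IC50 from 12-point 4-parameter fit. Radiometric filter-binding option also used.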

BTK = target: T1, BTK (Homo sapiens, UniProt Q06187); assay: Btk in vitro inhibitory activity (kinase assay by one of Methods A, B or C)
T1 construct: purified from insect cells as a full-length construct containing a N-terminal 6×-His tag; His6 (N); host or cells: insect cells (baculovirus Sf21)
T1 sequence (Q06187 whole entry): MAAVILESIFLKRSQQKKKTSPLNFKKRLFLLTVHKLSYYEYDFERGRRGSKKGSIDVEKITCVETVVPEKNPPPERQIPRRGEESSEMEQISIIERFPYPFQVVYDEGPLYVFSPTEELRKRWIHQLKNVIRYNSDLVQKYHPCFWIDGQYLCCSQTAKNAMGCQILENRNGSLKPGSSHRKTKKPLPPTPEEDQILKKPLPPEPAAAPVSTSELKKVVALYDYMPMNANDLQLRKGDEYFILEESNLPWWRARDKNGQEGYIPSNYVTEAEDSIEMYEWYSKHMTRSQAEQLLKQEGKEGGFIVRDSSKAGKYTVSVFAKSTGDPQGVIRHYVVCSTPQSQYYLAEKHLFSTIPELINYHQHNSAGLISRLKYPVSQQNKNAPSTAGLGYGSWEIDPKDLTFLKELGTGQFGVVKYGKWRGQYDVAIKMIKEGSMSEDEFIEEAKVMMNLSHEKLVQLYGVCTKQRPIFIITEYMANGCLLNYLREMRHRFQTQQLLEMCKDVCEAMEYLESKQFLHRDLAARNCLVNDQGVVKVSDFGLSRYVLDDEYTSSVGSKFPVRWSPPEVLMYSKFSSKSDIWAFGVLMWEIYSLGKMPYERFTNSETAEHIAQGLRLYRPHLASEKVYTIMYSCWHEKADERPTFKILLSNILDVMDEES
Method in brief: as §1

EGFR = EGFR (Homo sapiens, UniProt P00533); assay: Kinase panel inhibition, EGFR (one of the methods of Example 76a, 76b, 76c)
Sequence of EGFR (P00533 25-1210, species assumed): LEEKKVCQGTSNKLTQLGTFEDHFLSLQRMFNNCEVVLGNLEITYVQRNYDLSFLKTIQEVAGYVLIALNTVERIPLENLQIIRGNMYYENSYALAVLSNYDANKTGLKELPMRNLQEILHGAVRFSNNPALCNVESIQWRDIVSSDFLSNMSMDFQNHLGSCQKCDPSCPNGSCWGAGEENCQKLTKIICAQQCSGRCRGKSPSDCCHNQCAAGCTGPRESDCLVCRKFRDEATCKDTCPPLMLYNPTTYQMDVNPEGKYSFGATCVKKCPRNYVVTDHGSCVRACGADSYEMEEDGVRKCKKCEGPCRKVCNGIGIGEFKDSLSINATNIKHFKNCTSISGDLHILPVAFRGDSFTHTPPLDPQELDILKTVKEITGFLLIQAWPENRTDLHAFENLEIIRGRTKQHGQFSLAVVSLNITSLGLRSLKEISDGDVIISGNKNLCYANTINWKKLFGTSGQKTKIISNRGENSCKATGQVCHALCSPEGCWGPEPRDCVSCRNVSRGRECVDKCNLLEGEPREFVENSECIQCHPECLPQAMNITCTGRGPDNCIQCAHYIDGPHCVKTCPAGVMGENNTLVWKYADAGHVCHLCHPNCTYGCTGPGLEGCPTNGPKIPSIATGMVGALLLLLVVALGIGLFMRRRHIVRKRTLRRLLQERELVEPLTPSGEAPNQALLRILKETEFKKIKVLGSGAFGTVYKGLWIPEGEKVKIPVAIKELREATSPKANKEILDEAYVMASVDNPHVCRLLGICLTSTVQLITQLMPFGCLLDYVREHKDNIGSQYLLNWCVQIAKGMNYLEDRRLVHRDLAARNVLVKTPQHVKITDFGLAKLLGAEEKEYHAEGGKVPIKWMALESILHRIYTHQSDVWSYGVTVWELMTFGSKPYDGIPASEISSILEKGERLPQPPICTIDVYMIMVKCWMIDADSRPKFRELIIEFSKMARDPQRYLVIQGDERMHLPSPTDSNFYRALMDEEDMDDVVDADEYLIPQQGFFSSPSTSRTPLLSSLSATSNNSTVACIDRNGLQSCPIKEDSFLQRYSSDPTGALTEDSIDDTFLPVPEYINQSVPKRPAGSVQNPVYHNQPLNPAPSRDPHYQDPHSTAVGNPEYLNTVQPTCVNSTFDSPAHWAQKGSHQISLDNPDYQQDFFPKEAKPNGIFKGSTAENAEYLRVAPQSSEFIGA
Method in brief: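 Kinase activity was measured by TR-FRET in 50 μL reactions in 96-well plates. Enzyme, inhibitor, ATP at its Km and a biotinylated peptide substrate were incubated for one hour at pH 7.4 in buffer containing 20 mM Tris, 50 mM NaCl, MgCl2, MnCl2, 1 mM DTT, 0.1 mM EDTA, 0.01% bovine serum albumin, 0.005% Tween-20 and 10% DMSO. Reactions were stopped with EDTA in Lance buffer. Streptavidin-APC and Eu-labeled p-Tyr100 antibody were added for one hour. The 665/615 nm emission ratio gave activity. IC50 was derived from Ki(app) fitted with BatchKi.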

Sequence of LCK (P06239 whole entry, species assumed): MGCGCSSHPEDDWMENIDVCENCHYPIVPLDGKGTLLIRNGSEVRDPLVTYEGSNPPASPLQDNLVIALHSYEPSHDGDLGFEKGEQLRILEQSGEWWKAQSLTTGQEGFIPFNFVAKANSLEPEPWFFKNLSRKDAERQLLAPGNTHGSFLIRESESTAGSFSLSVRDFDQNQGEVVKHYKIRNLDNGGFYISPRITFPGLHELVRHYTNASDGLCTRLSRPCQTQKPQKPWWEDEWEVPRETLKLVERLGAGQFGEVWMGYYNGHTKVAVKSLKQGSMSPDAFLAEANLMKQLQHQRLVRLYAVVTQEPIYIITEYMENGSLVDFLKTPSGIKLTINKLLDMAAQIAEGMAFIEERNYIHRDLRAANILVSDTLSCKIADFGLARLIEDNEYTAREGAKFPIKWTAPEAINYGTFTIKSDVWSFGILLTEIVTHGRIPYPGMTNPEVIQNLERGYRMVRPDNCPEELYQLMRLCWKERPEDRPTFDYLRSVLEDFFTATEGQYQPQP

| IC50 (LCK) [nM] | IC50 (BTK) [nM] | IC50 (EGFR) [nM] | SMILES |
| --- | --- | --- | --- |
| 1000 to 10000 | < 100 | 100 to 1000 | COCCN(C)C/C=C/C(=O)N(C)c1cccc(-n2c(=O)n(-c3ccc(Oc4ccccc4)cc3)c3c(N)ncnc32)c1 [Compound 134, (E)-N-(3-(6-amino-8-oxo-7-(4-phenoxyphenyl)-7H-purin-9(8H)-yl)phenyl)-4-((2-methoxyethyl)(methyl)amino)-N-methylbut-2-enamide] |
| 100 to 1000 | < 100 | 100 to 1000 | CN(C(=O)/C(C#N)=C/C1CC1)c1cccc(-n2c(=O)n(-c3ccc(Oc4ccccc4)cc3)c3c(N)ncnc32)c1 [Compound 325, (E)-N-(3-(6-amino-8-oxo-7-(4-phenoxyphenyl)-7H-purin-9(8H)-yl)phenyl)-2-cyano-3-cyclopropyl-N-methylacrylamide] |
| 1000 to 10000 | < 100 | 100 to 1000 | COc1cc(NC(=O)/C=C/CN(C)C2CC2)cc(-n2c(=O)n(-c3ccc(Oc4ccccc4)cc3C)c3c(N)ncnc32)c1 [Compound 301, (E)-N-(3-(6-amino-7-(2-methyl-4-phenoxyphenyl)-8-oxo-7H-purin-9(8H)-yl)-5-methoxyphenyl)-4-(cyclopropyl(methyl)amino)but-2-enamide] |
| > 10000 | < 100 | 1000 to 10000 | Cc1cccc(COc2ccc(-n3c(=O)n(-c4cccc(N(C)C(=O)/C=C/CN(C)C5CC5)c4)c4ncnc(N)c43)cc2)c1 [Compound 239, (E)-N-(3-(6-amino-7-(4-(3-methylbenzyloxy)phenyl)-8-oxo-7H-purin-9(8H)-yl)phenyl)-4-(cyclopropyl(methyl)amino)-N-methylbut-2-enamide] |
| > 10000 | < 100 | 1000 to 10000 | CN(C(=O)/C=C/CN(C)C1CC1)c1cccc(-n2c(=O)n(-c3ccc(OCc4cccc(F)c4)cc3)c3c(N)ncnc32)c1 [Compound 244, (E)-N-(3-(6-amino-7-(4-(3-fluorobenzyloxy)phenyl)-8-oxo-7H-purin-9(8H)-yl)phenyl)-4-(cyclopropyl(methyl)amino)-N-methylbut-2-enamide] |
| > 10000 | < 100 | > 10000 | COCCOc1cc(N(C)C(=O)/C=C/CN(C)C)cc(-n2c(=O)n(-c3ccc(C)c(OC)c3)c3c(N)ncnc32)c1 [Compound 147, (E)-N-(3-(6-amino-7-(3-methoxy-4-methylphenyl)-8-oxo-7H-purin-9(8H)-yl)-5-(2-methoxyethoxy)phenyl)-4-(dimethylamino)-N-methylbut-2-enamide] |
| 100 to 1000 | < 100 | 1000 to 10000 | CN(C)C/C=C/C(=O)N1CCC(Cn2c(=O)n(-c3ccc(Oc4ccccc4)cc3)c3c(N)ncnc32)CC1 [Compound 75, (E)-6-amino-9-((1-(4-(dimethylamino)but-2-enoyl)piperidin-4-yl)methyl)-7-(4-phenoxyphenyl)-7H-purin-8(9H)-one] |
| 100 to 1000 | < 100 | 100 to 1000 | CN(C(=O)/C=C/CNC1CC1)c1cccc(-n2c(=O)n(-c3ccc(Oc4ccccc4)cc3)c3c(N)ncnc32)c1 [Compound 118, (E)-N-(3-(6-amino-8-oxo-7-(4-phenoxyphenyl)-7H-purin-9(8H)-yl)phenyl)-4-(cyclopropylamino)-N-methylbut-2-enamide] |
| 1000 to 10000 | 100 to 1000 | 1000 to 10000 | CN(C(=O)/C=C/c1cn(C)cn1)c1cccc(-n2c(=O)n(-c3ccc(Oc4ccccc4)cc3)c3c(N)ncnc32)c1 [Compound 327, (E)-N-(3-(6-amino-8-oxo-7-(4-phenoxyphenyl)-7H-purin-9(8H)-yl)phenyl)-N-methyl-3-(1-methyl-1H-imidazol-4-yl)acrylamide] |
| 100 to 1000 | < 100 | 100 to 1000 | CN(C/C=C/C(=O)Nc1cccc(-n2c(=O)n(-c3ccc(Oc4ccccc4)cc3)c3c(N)ncnc32)c1)[C@H]1CCOC1 [Compound 317, (S,E)-N-(3-(6-amino-8-oxo-7-(4-phenoxyphenyl)-7H-purin-9(8H)-yl)phenyl)-4-(methyl(tetrahydrofuran-3-yl)amino)but-2-enamide] |
| 1000 to 10000 | < 100 | < 100 | CNC/C=C/C(=O)N(C)c1cccc(-n2c(=O)n(-c3ccc(Oc4ccccc4)cc3)c3c(N)ncnc32)c1 [Compound 229, (E)-N-(3-(6-amino-8-oxo-7-(4-phenoxyphenyl)-7H-purin-9(8H)-yl)phenyl)-N-methyl-4-(methylamino)but-2-enamide hydrochloride] |
| 1000 to 10000 | < 100 | 1000 to 10000 | COCCOc1ccc(-n2c(=O)n(-c3ccc(C)c(OC)c3)c3c(N)ncnc32)cc1NC(=O)/C=C/CN(C)C [Compound 112, (E)-N-(5-(6-amino-7-(3-methoxy-4-methylphenyl)-8-oxo-7H-purin-9(8H)-yl)-2-(2-methoxyethoxy)phenyl)-4-(dimethylamino)but-2-enamide] |
| 1000 to 10000 | < 100 | 1000 to 10000 | COc1ccc(-n2c(=O)n(-c3ccc(Oc4ccccc4)cc3)c3c(N)ncnc32)cc1N(C)C(=O)/C=C/CN(C)[C@H]1CCOC1 [Compound 313, (S,E)-N-(5-(6-amino-8-oxo-7-(4-phenoxyphenyl)-7H-purin-9(8H)-yl)-2-methoxyphenyl)-N-methyl-4-(methyl(tetrahydrofuran-3-yl)amino)but-2-enamide] |
| 1000 to 10000 | < 100 | 100 to 1000 | Cc1cc(NC(=O)/C=C/CN(C)C2CC2)cc(-n2c(=O)n(-c3ccc(Oc4ccccc4)cc3C)c3c(N)ncnc32)c1 [Compound 298, (E)-N-(3-(6-amino-7-(2-methyl-4-phenoxyphenyl)-8-oxo-7H-purin-9(8H)-yl)-5-methylphenyl)-4-(cyclopropyl(methyl)amino)but-2-enamide] |
| 1000 to 10000 | < 100 | 100 to 1000 | CN(C/C=C/C(=O)Nc1cccc(-n2c(=O)n(-c3ccc(Oc4cccc(F)c4)cc3)c3c(N)ncnc32)c1)[C@H]1CCOC1 [Compound 316, (S,E)-N-(3-(6-amino-7-(4-(3-fluorophenoxy)phenyl)-8-oxo-7H-purin-9(8H)-yl)phenyl)-4-(methyl(tetrahydrofuran-3-yl)amino)but-2-enamide] |
| 100 to 1000 | < 100 | < 100 | COCCN(C)C/C=C/C(=O)Nc1cccc(-n2c(=O)n(-c3ccc(Oc4ccccc4)cc3)c3c(N)ncnc32)c1 [Compound 318, (E)-N-(3-(6-amino-8-oxo-7-(4-phenoxyphenyl)-7H-purin-9(8H)-yl)phenyl)-4-((2-methoxyethyl)(methyl)amino)but-2-enamide] |

From patent publication US9469642B2, “Purinone compounds as kinase inhibitors” (Pharmacyclics LLC, priority 2012, dated 2016)
